# Source: patent US7309701B2, “Pyridazinone derivatives as pharmaceuticals and pharmaceutical compositions containing them” (Sanofi-Aventis Deutschland GmbH, priority 2002, dated 2007)
# Test system: not given
# Assay: not given
# Conditions: not given
row,SMILES,melting point
1,"O=C(NCc1ccc(N2CCOCC2)cc1)c1cc(-c2ccncc2)n[nH]c1=O [Example 17, N-(4-morpholin-4-ylbenzyl)-3-oxo-6-pyridin-4-yl-2,3-dihydropyridazine-4-carboxamide]",252 °C
2,"O=C(NCc1ccccn1)c1cc(-c2ccncc2)n[nH]c1=O [Example 15, 3-oxo-6-pyridin-4-yl-N-(pyridin-2-ylmethyl)-2,3-dihydropyridazine-4-carboxamide]",242 °C
3,"O=C(NCc1ccc(Cl)cc1Cl)c1cc(-c2ccccc2)n[nH]c1=O [Example 1, N-(2,4-dichlorobenzyl)-3-oxo-6-phenyl-4-yl-2,3-dihydropyridazine-4-carboxamide]",~ 258 °C

# Other lines, results leading:
row,melting point,SMILES
1,180 °C,"CCOC(=O)CCNC(=O)c1cc(-c2ccncc2)n[nH]c1=O [Example 13, Ethyl 3-[(3-oxo-6-pyridin-4-yl-2,3-dihydropyridazine-4-carbonyl)amino]propionate]"
2,209 °C,"CCCCNC(=O)c1cc(-c2ccncc2)n[nH]c1=O [Example 12, 3-oxo-6-pyridin-4-yl-N-(n-butyl)-2,3-dihydropyridazine-4-carboxamide]"
3,224 °C,"O=C(NCc1cccc(C(F)(F)F)c1)c1cc(-c2ccncc2)n[nH]c1=O [Example 9, 3-oxo-6-pyridin-4-yl-N-[3-(trifluoromethyl)benzyl]-2,3-dihydropyridazine-4-carboxamide]"
4,262 °C,"O=C(NCc1cccnc1)c1cc(-c2ccncc2)n[nH]c1=O [Example 14, 3-oxo-6-pyridin-4-yl-N-(pyridin-3-ylmethyl)-2,3-dihydropyridazine-4-carboxamide]"
5,202 °C,"O=C(NCCc1ccc(Cl)cc1Cl)c1cc(-c2ccncc2)n[nH]c1=O [Example 6, N-[2-(2,4-dichlorophenyl)ethyl]-3-oxo-6-pyridin-4-yl-2,3-dihydropyridazine-4-carboxamide]"
6,258 °C,"O=C(NCc1ccccc1)c1cc(-c2ccncc2)n[nH]c1=O [Example 3, N-benzyl-3-oxo-6-pyridin-4-yl-2,3-dihydropyridazine-4-carboxamide]"

# Test system: Tau protein
# Assay: Tau-phosphorylation: inhibition of phosphorylation of the Tau protein in adult rat cortex sections
# Assay type: cell-based
# Conditions: inhibition of Tau phosphorylation (Ser396/404, antibody AD2), 2 h incubation at 37° C.
# Procedure: The compounds' activities were determined by measuring the inhibition of phosphorylation of the Tau protein in adult rat cortex sections. The cortex sections having a thickness of 300 μm were prepared from 8-10-week old male OFA rats (Iffa-Credo), sacrificed by decapitation. They were incubated in 5 ml of DMEM medium containing pyruvate and glucose 4.5 g/l at 37° C. for 40 min. The sections were then washed twice with the medium, distributed into microtubes (50 μl in 500 μl of medium with or without test compounds), and incubated at 37° C., with stirring. Two hours later, the experiment was stopped by centrifugation. The sections were washed, sonicated and centrifuged at 18300 g, for 15 min at 4° C. The concentration of proteins in supernatant was determined by a commercial assay (BCA Protein Assay, Pierce) based on the Lowry method. The samples, denatured beforehand for 10 min at 70° C., were separated on a 4-12% Bis-Tris vertical gel in the presence of MOPS-SDS buffer and electrotransferred onto nitrocellulose membrane. Immunolabeling was performed with their monoclonal antibody AD2 which specifically recognizes the phosphorylated epitopes Ser396/404 of the Tau protein. The immunoactive proteins were visualized by adding a second antibody directed against the mouse IgG's and coupled to peroxidase and a chemiluminescent substrate. The autoradiograms obtained were finally quantified using the ‘GeneTools’ software from Syngene (GeneGnome, Ozyme) in order to determine an IC50.
row,IC50 [nM],SMILES
1,2200,"O=C(NCc1ccc(Cl)cc1)c1cc(Cl)n[nH]c1=O [Example 43, 6-Chloro-3-oxo-2,3-dihydro-pyridazine-4-carboxylic acid 4-chloro-benzylamide]"

# Biological target: human recombinant GSK-3β (Homo sapiens, UniProt P49841)
# Sequence (P49841 whole entry): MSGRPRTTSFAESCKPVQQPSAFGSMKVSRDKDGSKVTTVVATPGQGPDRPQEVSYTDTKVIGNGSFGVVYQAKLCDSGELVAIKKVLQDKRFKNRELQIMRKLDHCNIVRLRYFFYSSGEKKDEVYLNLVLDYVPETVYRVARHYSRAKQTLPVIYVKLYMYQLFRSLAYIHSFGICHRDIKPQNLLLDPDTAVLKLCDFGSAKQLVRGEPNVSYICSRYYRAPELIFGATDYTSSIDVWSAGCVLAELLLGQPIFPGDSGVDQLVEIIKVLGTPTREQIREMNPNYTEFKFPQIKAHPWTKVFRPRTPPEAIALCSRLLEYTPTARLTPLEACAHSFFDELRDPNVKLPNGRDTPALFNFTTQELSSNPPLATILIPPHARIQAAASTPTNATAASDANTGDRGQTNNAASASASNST
# Assay: GSK-3β activity, AlphaScreen with primed glycogen synthase substrate peptide
# Assay type: biochemical
# Conditions: not given
# Procedure: GSK-β activity was measured using human recombinant GSK-3β and a primed (pre-phosphorylated) substrate peptide (derived from glycogen synthase and containing the phosphorylation sites 3a, b, and c) on basis of the AlphaScreen technology in 384-well plate format (small volume plate, white, GREINER).
row,IC50 [nM],SMILES
1,36,"CCCCNc1nccc(-c2cc(C(=O)NCCCc3cccnc3)c(=O)[nH]n2)n1 [Example 220, 6-(2-Butylamino-pyrimidin-4-yl)-3-oxo-2,3-dihydro-pyridazine-4-carboxylic acid (3-pyridin-3-yl-propyl)-amide]"
2,39,"O=C(NCc1ccc(Cl)cc1)c1cc(-c2ccc(O)c(F)c2)n[nH]c1=O [Example 183, 6-(3-Fluoro-4-hydroxy-phenyl)-3-oxo-2,3-dihydro-pyridazine-4-carboxylic acid 4-chloro-benzylamide]"

row,SMILES,IC50 [nM]
1,"O=C(NCc1ccc(F)cc1F)c1cc(-c2ccncc2)n[nH]c1=O [Example 117, 3-Oxo-6-pyridin-4-yl-2,3-dihydro-pyridazine-4-carboxylic acid 2,4-difluoro-benzylamide;compound withtrifluoro-acetic acid]",65

# Same assay, conditions: human recombinant GSK-3β, 10 μM ATP, 60 min at room temperature, AlphaScreen; read-out: IC50
row,SMILES,IC50 [nM]
1,"O=C(NCc1ccc(Cl)cc1)c1cc(-c2cc(F)c(O)c(F)c2)n[nH]c1=O [Example 182, 6-(3,5-Difluoro-4-hydroxy-phenyl)-3-oxo-2,3-dihydro-pyridazine-4-carboxylic acid 4-chloro-benzylamide]",170
2,"Cc1cc(-c2cc(C(=O)NCc3ccc(C(=O)O)cc3)c(=O)[nH]n2)cc(C)c1O [Example 32, 4-({[6-(4-Hydroxy-3,5-dimethyl-phenyl)-3-oxo-2,3-dihydro-pyridazine-4-carbonyl]-amino}-methyl)-benzoic acid]",5
3,"O=C(NCc1ccc(N2CCOCC2)cc1)c1cc(-c2ccncc2)n[nH]c1=O [Example 17, N-(4-morpholin-4-ylbenzyl)-3-oxo-6-pyridin-4-yl-2,3-dihydropyridazine-4-carboxamide]",251
4,"O=C(NCc1ccc(Cl)cc1)c1cc(-c2ccnc(NCCN3CCOCC3)n2)n[nH]c1=O [Example 175, 6-[2-(2-Morpholin-4-yl-ethylamino)-pyrimidin-4-yl]-3-oxo-2,3-dihydro-pyridazine-4-carboxylic acid 4-chloro-benzylamide;compound withtrifluoro-acetic acid]",17
5,"O=C(Nc1ccncc1)c1ccc(CNC(=O)c2cc(-c3ccncc3)n[nH]c2=O)cc1 [Example 156, 3-Oxo-6-pyridin-4-yl-2,3-dihydro-pyridazine-4-carboxylic acid 4-(pyridin-4-ylcarbamoyl)-benzylamide;compound withtrifluoro-acetic acid]",86
6,"O=C(NCc1ccc(C(F)(F)F)cc1)c1cc(-c2ccncc2)n[nH]c1=O [Example 112, 3-Oxo-6-pyridin-4-yl-2,3-dihydro-pyridazine-4-carboxylic acid 4-trifluoromethyl-benzylamide;compound withtrifluoro-acetic acid]",123
7,"CCCCNc1nccc(-c2cc(C(=O)NCCCN3CCN(C)CC3)c(=O)[nH]n2)n1 [Example 218, 6-(2-Butylamino-pyrimidin-4-yl)-3-oxo-2,3-dihydro-pyridazine-4-carboxylic acid [3-(4-methyl-piperazin-1-yl)-propyl]-amide;compound withtrifluoro-acetic acid]",22
8,"CCNc1nccc(-c2cc(C(=O)NCc3ccc(Cl)cc3)c(=O)[nH]n2)n1 [Example 190, 6-(2-Ethylamino-pyrimidin-4-yl)-3-oxo-2,3-dihydro-pyridazine-4-carboxylic acid 4-chloro-benzylamide]",> 1000
9,"O=C(NCc1ccc(Br)cc1)c1cc(-c2ccncc2)n[nH]c1=O [Example 75, 3-Oxo-6-pyridin-4-yl-2,3-dihydro-pyridazine-4-carboxylic acid 4-bromo-benzylamide;compound withtrifluoro-acetic acid]",380

# The next lines start with the values.
row,IC50 [nM],SMILES
1,227,"O=C(NCc1ccc(Cl)cc1)c1cc(-c2ccc(O)c(Cl)c2)n[nH]c1=O [Example 180, 6-(3-Chloro-4-hydroxy-phenyl)-3-oxo-2,3-dihydro-pyridazine-4-carboxylic acid 4-chloro-benzylamide]"
2,250,"O=C(NCc1ccc(Cl)cc1F)c1cc(-c2ccncc2)n[nH]c1=O [Example 116, 3-Oxo-6-pyridin-4-yl-2,3-dihydro-pyridazine-4-carboxylic acid 4-chloro-2-fluoro-benzylamide;compound withtrifluoro-acetic acid]"
3,9,"COc1cc(-c2cc(C(=O)NCc3ccc(C(=O)O)cc3)c(=O)[nH]n2)ccc1O [Example 225, 4-({[6-(4-Hydroxy-3-methoxy-phenyl)-3-oxo-2,3-dihydro-pyridazine-4-carbonyl]-amino}-methyl)-benzoic acid]"
4,10300,Cc1cc(-c2cc(C(=O)NCc3ccc(Cl)cc3)c(=O)[nH]n2)ccc1O [Example 155]
5,1,"COc1cc(-c2cc(C(=O)NCCCc3cccnc3)c(=O)[nH]n2)ccc1O [Example 49, 6-(4-Hydroxy-3-methoxy-phenyl)-3-oxo-2,3-dihydro-pyridazine-4-carboxylic acid (3-pyridin-3-yl-propyl)-amide]"
6,24,"C[C@@H](Nc1nccc(-c2cc(C(=O)NCCCc3ccccc3)c(=O)[nH]n2)n1)c1ccccc1 [Example 215, R-3-Oxo-6-[2-(1-phenyl-ethylamino)-pyrimidin-4-yl]-2,3-dihydro-pyridazine-4-carboxylic acid(3-phenyl-propyl)-amide]"
7,30,"CNc1cc(-c2cc(C(=O)NCc3ccc(Cl)cc3)c(=O)[nH]n2)ccn1 [Example 206, 6-(2-Methylamino-pyridin-4-yl)-3-oxo-2,3-dihydro-pyridazine-4-carboxylic acid 4-chloro-benzylamide]"
8,7,"O=C(NCCCc1cccnc1)c1cc(-c2ccc(O)cc2)n[nH]c1=O [Example 164, 6-(4-Hydroxy-phenyl)-3-oxo-2,3-dihydro-pyridazine-4-carboxylic acid (3-pyridin-3-yl-propyl)-amide]"
9,97,"O=C(NCc1cccnc1)c1cc(-c2ccncc2)n[nH]c1=O [Example 14, 3-oxo-6-pyridin-4-yl-N-(pyridin-3-ylmethyl)-2,3-dihydropyridazine-4-carboxamide]"
10,2300,"COc1cc(-c2cc(C(=O)NCc3ccc(Cl)cc3)c(=O)[nH]n2)ccc1O [Example 41, 6-(4-Hydroxy-3-methoxy-phenyl)-3-oxo-2,3-dihydro-pyridazine-4-carboxylic acid 4-chloro-benzylamide]"
11,36,"Cc1cc(-c2cc(C(=O)NCCCc3cccnc3)c(=O)[nH]n2)cc(C)c1O [Example 48, 6-(4-Hydroxy-3,5-dimethyl-phenyl)-3-oxo-2,3-dihydro-pyridazine-4-carboxylic acid (3-pyridin-3-yl-propyl)-amide]"
12,29,"CCCCNc1nccc(-c2cc(C(=O)NCc3cccnc3)c(=O)[nH]n2)n1 [Example 219, 6-(2-Butylamino-pyrimidin-4-yl)-3-oxo-2,3-dihydro-pyridazine-4-carboxylic acid(pyridin-3-ylmethyl)-amide]"
